The target in this experiment is T1, human fascin 1 (Homo sapiens, UniProt Q16658).
T1 construct: GST (N, cleaved yes); made in house; host or cells: Escherichia coli BL21/DE3 (pGEX4T-fascin 1 plasmid)
Briefly: Fascin inhibition (actin bundling) assay, image-based. Format: biochemical. The note with it: in the presence of 50 μm of the compound relative to bundle activity when the compound was not present; read-out: Inhibition (percentage reduction of bundle activity). How it is done:
Recombinant human fascin 1 was expressed as a GST fusion protein in BL21 Escherichia coli. One liter of 2YT medium with ampicillin was inoculated overnight with 3 mL of BL21/DE3 culture transformed with pGEX4T-fascin 1 plasmid and grown at 37° C. until attenuance at 600 nm (D600) reached about 0.8. The culture was then transferred to 18° C. and induced by the addition of 0.1 mM isopropyl β-d-thiogalactoside (IPTG) for 12 h. Bacteria were harvested by centrifugation at 5,000 r.p.m. for 10 min. The pellets were suspended in 30 mL of PBS supplemented with 0.2 mM PMSF, 1 mM DTT, 1% (v/v) Triton X-100 and 1 mM EDTA. After sonication, the suspension was centrifuged at 15,000 r.p.m. for 30 min to remove the cell debris. The supernatant was then incubated for 2 h with 4 mL of glutathione beads (Sigma) at 4° C. After extensive washing with PBS, the beads were resuspended in 10 mL of thrombin cleavage buffer (20 mM Tris-HCl pH 8.0, 150 mM NaCl, 2 mM CaCl2, 1 mM DTT). Fascin was released from the beads by incubation overnight with 40-100 U of thrombin at 4° C. After centrifugation, 0.2 mM PMSF was added to the supernatant to inactivate the remnant thrombin activity. The fascin protein was further concentrated with a Centricon® (Boca Raton, Fla.) filter to about 50 mg/mL.
Representative compounds described herein were tested for fascin inhibition activity. Purified fascin protein (15 μL of 0.5 μM) in buffer (100 mM KCl, 20 mM Tris/HCl, pH 7.5, 2 mM MgCl2) was added into each well of a clear 384-well flat-bottom plate (Corning) using Thermo Multidrop Combi (Fisher). Compound solutions (5 mM stock, 180 nL) were pin transferred from stock 384-well plates into the 384-well assay plates and incubated for 30 min. Then 15 μL of 0.5 μM polymerized actin (in 100 mM KCl, 20 mM Tris/HCl, pH 7.5, 2 mM MgCl2, 1 mM DTT, 1 mM ATP) (Cytoskeleton Inc.) was added, resulting in 30 μM final concentration for chemical compounds. […] Mixed solution (25 μL) was then transferred to one well in a black 384-well plate coated with poly-D-lysine, and stained actin bundles or F-actin would stick onto the poly-D-lysine plates. After the plates were thoroughly washed with 1×PBS for 3 times, the plate was imaged using an ImageXpress Micro High Content Screening System (Molecular devices). The images were processed and analyzed using MetaMorph software. The raw image data for each well was background-corrected by subtraction of the median intensities across all wells on the plate. The background-corrected data was used to compute the bundle length for each well. The negative control wells were employed for quality control: multiple DMSO-only control wells (16 wells/plate) were present on each assay plate.

The text below walks through data of patent US10227345B2, “Compounds and methods for inhibiting fascin” (Cornell University, priority 2014, dated 2019).

SMILES strings stand for the structures.

The inhibition is how much of the control response was suppressed. With `O=C(Nc1nn(Cc2ccc(C(F)(F)F)cc2)c2ccc(C(F)(F)F)cc12)c1ccoc1` [Compound 123, N-(5-(trifluoromethyl)-1-(4-(trifluoromethyl)benzyl)-1H-indazol-3-yl)furan-3-carboxamide], the inhibition at 50 µM was < 10%. The figure for `O=C(Nc1nn(Cc2ccc(C(F)(F)F)nc2)c2cccc(Cl)c12)c1cccnn1` [Compound 121, N-(4-chloro-1-((6-(trifluoromethyl)pyridin-3-yl)methyl)-1H-indazol-3-yl)pyridazine-3-carboxamide] is < 10%. As for `O=C(Nc1nn(Cc2ccc(C(F)(F)F)cc2)c2ccccc12)c1ccccc1Br` [Compound 46, 2-bromo-N-(1-(4-(trifluoromethyl)benzyl)-1H-indazol-3-yl)benzamide], the inhibition at 50 µM is < 10%. The figure for `Cc1ccc(Cn2nc(NC(=O)c3ccno3)c3ccccc32)cc1` [Compound 80, N-(1-(4-methylbenzyl)-1H-indazol-3-yl)isoxazole-5-carboxamide] is 50%; for `Cc1ccc2c(N)nn(Cc3ccc(C(F)(F)F)cc3)c2n1` [Compound 131, 6-methyl-1-(4-(trifluoromethyl)benzyl)-1H-pyrazolo[3,4-b]pyridin-3-amine] it is < 10%. The figure for `O=C(Nc1nn(Cc2ccc(C(F)(F)F)nc2)c2ccccc12)c1cccnn1` [Compound 96, N-(1-((6-(trifluoromethyl)pyridin-3-yl)methyl)-1H-indazol-3-yl)pyridazine-3-carboxamide] is < 10%; for `Cc1nocc1C(=O)Nc1nn(Cc2ccc(C(F)(F)F)cc2)c2cc(C(F)(F)F)ccc12` [Compound 108] it is < 10%.

On to `Cc1nocc1C(=O)Nc1nn(Cc2ccc(C(F)(F)F)cc2)c2ccc(C(F)(F)F)cc12` [Compound 124, 3-methyl-N-(5-(trifluoromethyl)-1-(4-(trifluoromethyl)benzyl)-1H-indazol-3-yl)isoxazole-4-carboxamide], for which the inhibition at 50 µM was < 10%. For `O=C(Nc1nn(Cc2cccc(C(F)(F)F)c2)c2ccccc12)c1ccoc1` [Compound 48, N-(1-(3-(trifluoromethyl)benzyl)-1H-indazol-3-yl)furan-3-carboxamide], the inhibition at 50 µM is < 10%. For the compound `Cc1occc1C(=O)Nc1nn(Cc2ccc(C(F)(F)F)cc2)c2c(C(F)(F)F)cccc12` [Compound 114, 2-methyl-N-(7-(trifluoromethyl)-1-(4-(trifluoromethyl)benzyl)-1H-indazol-3-yl)furan-3-carboxamide], the inhibition at 50 µM was < 10%.

On to `O=C(Nc1nn(Cc2ccc(C(F)(F)F)cc2)c2ccccc12)c1cnco1` [Compound 40, N-(1-(4-(trifluoromethyl)benzyl)-1H-indazol-3-yl)oxazole-5-carboxamide], for which the inhibition at 50 µM is 100%.

As for `O=C(Nc1nn(Cc2ccc(C(F)(F)F)nc2)c2ccccc12)c1ccoc1` [Compound 92, N-(1-((6-(trifluoromethyl)pyridine-3-yl)methyl)-1H-indazol-3-yl)furan-3-carboxamide], the inhibition at 50 µM is < 10%. `Cc1ccc2c(NC(=O)c3ccoc3)nn(Cc3ccc(C(F)(F)F)cc3)c2n1` [Compound 132, N-(6-methyl-1-(4-(trifluoromethyl)benzyl)-1H-pyrazolo[3,4-b]pyridin-3-yl)furan-3-carboxamide]: the inhibition at 50 µM is < 10%.

In the case of `CNc1nn(Cc2ccc(C(F)(F)F)cc2)c2cncc(Cl)c12` [Compound 149], the inhibition at 50 µM worked out at 10%. The figure for `Cc1ncsc1C(=O)Nc1nn(Cc2ccc(C(F)(F)F)cc2)c2c(C(F)(F)F)cccc12` [Compound 115, 4-methyl-N-(7-(trifluoromethyl)-1-(4-(trifluoromethyl)benzyl)-1H-indazol-3-yl)thiazole-5-carboxamide] is < 10%; for `Cc1occc1C(=O)Nc1nn(Cc2ccc(C(F)(F)F)nc2)c2ccc(C#N)cc12` [Compound 100, N-(5-cyano-1-((6-(trifluoromethyl)pyridin-3 - yl)methyl)-1H-indazol-3-yl)-2-methylfuran-3-carboxamide] it is < 10%. For `Nc1nn(Cc2ccc(Cl)cc2)c2ccccc12` [Compound 63, 1-(4-chlorobenzyl)-1H-indazol-3-amine] the value was < 10%. On to `O=C(Nc1nn(Cc2ccc(C(F)(F)F)cc2)c2cc(C(F)(F)F)ccc12)c1ccoc1` [Compound 107, N-(6-(trifluoromethyl)-1-(4-(trifluoromethyl)benzyl)-1H-indazol-3-yl)furan-3-carboxamide], for which the inhibition at 50 µM was < 10%. For `Cc1occc1C(=O)Nc1nn(Cc2ccc(C(F)(F)F)cc2)c2cncc(Cl)c12` [Compound 141, N-(4-chloro-1-(4-(trifluoromethyl)benzyl)-1H-pyrazolo[3,4-c]pyridin-3-yl)-2-methylfuran-3-carboxamide] the value was 10%; for `O=C(Nc1nn(Cc2ccc(C(F)(F)F)cc2)c2ccccc12)c1cncnc1` [Compound 56, N-(1-(4-(trifluoromethyl)benzyl)-1H-indazol-3-yl)pyrimidine-5-carboxamide], 90%. For `Cc1ccc2c(NC(=O)c3scnc3C)nn(Cc3ccc(C(F)(F)F)cc3)c2n1` [Compound 135, 4-methyl-N-(6-methyl-1-(4-(trifluoromethyl)benzyl)-1H-pyrazolo[3,4-b]pyridin-3-yl)thiazole-5-carboxamide] the value was < 10%; for `O=C(Nc1nn(Cc2ccc(C(F)(F)F)cc2)c2c(C(F)(F)F)cccc12)c1ccoc1` [Compound 112, N-(7-(trifluoromethyl)-1-(4-(trifluoromethyl)benzyl)-1H-indazol-3-yl)furan-3-carboxamide], < 10%. For `O=C(Nc1nn(Cc2ccc(Cl)cc2)c2ccccc12)c1cccnn1` [Compound 69, N-(1-(4-chlorobenzyl)-1H-indazol-3-yl)pyridazine-3-carboxamide] the value was 50%. As for `O=C(Nc1nn(Cc2ccc(C(F)(F)F)cc2)c2ccccc12)c1cc(F)ccc1F` [Compound 21, 2,5-difluoro-N-(1-(4-trifluoromethyl)benzyl)-1H-(indazol-3-yl)benzamide], the inhibition at 50 µM is < 10%. For `Cc1nocc1C(=O)Nc1nn(Cc2ccc(C(F)(F)F)cc2)c2cncc(Cl)c12` [Compound 142, N-(4-chloro-1-(4-(trifluoromethyl)benzyl)-1H-pyrazolo[3,4-c]pyridin-3-yl)-3-methylisoxazole-4-carboxamide] the value was 10%; for `Cc1cc[nH]c1C(=O)Nc1nn(Cc2ccc(C(F)(F)F)cc2)c2ccccc12` [Compound 27, 3-methyl-N-(1-(4-(trifluoromethyl)benzyl)-1H-indazol-3-yl)-1H-pyrrole-2-carboxamide], < 10%; for `Cc1ccc(Cn2nc(NC(=O)c3ccoc3C)c3ccccc32)cc1` [Compound 81, 2-methyl-N-(1-(4-methylbenzyl)-1H-indazol-3-yl)furan-3-carboxamide], < 10%. With `Nc1nn(Cc2ccc(C(F)(F)F)cc2)c2ccc(C(F)(F)F)cc12` [Compound 122, 5-(trifluoromethyl)-1-(4-(trifluoromethyl)benzyl)-1H-indazol-3-amine], the inhibition at 50 µM is < 10%.

Regarding `Nc1nn(Cc2ccc(C(F)(F)F)cc2)c2cc(C(F)(F)F)ccc12` [Compound 106, 6-(trifluoromethyl)-1-(4-(trifluoromethyl)benzyl)-1H-indazol-3-amine], the inhibition at 50 µM was < 10%.
